The source of these data is ChEMBL document CHEMBL1130630, “Structure-based design of peptidomimetic ligands of the Grb2-SH2 domain” (Bioorg Med Chem Lett, 1998).

Each structure is given as a SMILES string. Square brackets hold non-standard residues; d marks the D form. Peptide text beside a SMILES is read from it. pY = N[C@@H](Cc1ccc(OP(=O)(O)O)cc1)C(=O)O

The term IC50 denotes the concentration at which inhibition is half-maximal. Higher therefore signals a need for much substance.

Growth factor receptor-bound protein 2, sequence (P62993 whole entry, the tested form may be a part): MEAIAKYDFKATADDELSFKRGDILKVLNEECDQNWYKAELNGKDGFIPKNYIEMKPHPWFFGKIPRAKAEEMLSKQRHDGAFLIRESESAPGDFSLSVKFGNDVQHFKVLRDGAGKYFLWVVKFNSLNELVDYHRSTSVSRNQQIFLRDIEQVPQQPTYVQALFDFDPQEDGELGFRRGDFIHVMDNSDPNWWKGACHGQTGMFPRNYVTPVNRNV

The assay addresses Growth factor receptor-bound protein 2 (Homo sapiens, UniProt P62993). Put plainly: Inhibition of Growth factor receptor bound protein 2 SH2 domain binding to phospho-EGFR by ELISA. Background: In an ELISA, binding on a coated surface is turned into a signal by an enzyme label.
As to `CC(=O)N[C@@H](Cc1ccc(OP(=O)(O)O)cc1)C(=O)NCc1cccc(NC(N)=O)c1`, the IC50 was 48.7 µM.
The result for `CC(=O)N[C@@H](Cc1ccc(OP(=O)(O)O)cc1)C(=O)N[C@@H](CCC(N)=O)c1cccc(NC(N)=O)c1` reads 6.5 µM; that for `CC(=O)N[C@@H](Cc1ccc(OP(=O)(O)O)cc1)C(=O)N[C@H](c1cccc(NC(N)=O)c1)C(C)C`, 6.19 µM.
The result for `CC(=O)N[C@@H](Cc1ccc(OP(=O)(O)O)cc1)C(=O)N[C@@H](CCC(N)=O)C(=O)N[C@@H](CC(N)=O)C(N)=O` (Ac-[pY]-Gln-Asn-NH2) reads 5.44 µM.
The result for `CC(=O)N[C@@H](Cc1ccc(OP(=O)(O)O)cc1)C(=O)NCC(=O)N[C@@H](CC(N)=O)C(N)=O` (Ac-[pY]-Gly-Asn-NH2) reads 67 µM; that for `CC(=O)N[C@@H](Cc1ccc(OP(=O)(O)O)cc1)C(=O)N[C@H](C(=O)N[C@@H](CC(N)=O)C(N)=O)C(C)C` (Ac-[pY]-Val-Asn-NH2), 4.32 µM.
